Measurements from patent US11066651B2, “Methods and compositions relating to viral latency” (University of Utah Research Foundation, priority 2009, dated 2021).
Entries after “also recorded” stand apart in the source; their conditions may differ.

Key:
DHIV-infected NP cells = test: HIV-1 reactivation by αCD3/CD28 in latently infected NP cells in the presence of signaling inhibitors (intracellular p24 Gag, flow cytometry); format: cell-based, human; settings: αCD3/CD28 restimulation 3 days; for inhibition of reactivation: inhibitor preincubated 2 hr
Procedure: (§1) To assess intracellular p24-gag expression, 5×10^5 cells were fixed and permeabilized with Citofix/Cytoperm during 30 min at 4° C. (BD Biosciences, San Diego, Calif.). Cells were washed with Perm/Wash Buffer (BD Biosciences) and stained with 1:40 dilution of anti-p24 antibody (AG3.0) in 100 μl of Perm/Wash Buffer during 30 min at 4° C. Cells were washed with Perm/Wash Buffer and incubated with 1:100 Alexa Fluor 488 goat anti-mouse IgG (H+L) in 100 μl of Perm/Wash Buffer during 30 min at 4° C. Cells were washed with Perm/Wash Buffer and samples were analyzed by flow cytometry. Forward versus side scatter plots were used to define the live population. In all the experiments, HIV p24-gag staining regions were set with uninfected cells treated in parallel.
2.5×10^5 cells were reactivated with beads coated with anti-CD3 and anti-CD28 during 72 hours in the presence of IL-2 (1 bead per cell).
For inhibition studies, cells were preincubated with the indicated inhibitor for 2 hr before stimulation (See Supplementary Methods on line for the concentration of each inhibitor or activator).
To begin to dissect potential signaling pathways leading to virus reactivation, a panel of known signaling inhibitors was tested. […] As a control, and to confirm expectations that the observed latent infections represent post-integration events, the integrase inhibitor, 118-D-24, was tested (FIG. 3A).
(§2) The concentration of each inhibitor or activator was as follows: 5 μM H-89, 50 μM PD98059, 250 nM Wortmannin, 15 nM bisindolylmaleimide II (BIM), 5 μM Rottlerin, 10 μM PP2, 50 μg/ml I kappa B Kinase Inhibitor Peptide, Cell-Permeable (IKK inh.) and 50 μM Forskolin (Calbiochem, San Diego, Calif.); 50 μM SB202190 and 125 ng/ml Leflunomide (Alexis Biochemicals, San Diego, Calif.); 10 nM Gö6976 and 1 μM Prostratin (LC Laboratories, Woburn, Mass.); 25 ng/ml TNF-α (Prepotech Inc.); 10 ng/ml phorbol 12-myristate 13-acetate, 1 μM Ionomycin, 5 μg/ml L-PHA and 1 mM Valproic Acid (Sigma, Saint Louis, Mo.); 500 ng/ml Cyclosporin A (Fluka/Sigma); 25 μM SP600125 (A.G. Scientific Int., San Diego, Calif.); and 20 μM Integrase Inhibitor (118-D-24).

[1] = test system: Latently infected cells (DHIV-infected NP cells); test: PHA-mediated HIV-1 reactivation in the presence of inhibitors (intracellular p24 Gag); format: cell-based, human
Procedure: To assess intracellular p24-gag expression, 5×10^5 cells were fixed and permeabilized with Citofix/Cytoperm during 30 min at 4° C. […] Cells were washed with Perm/Wash Buffer (BD Biosciences) and stained with 1:40 dilution of anti-p24 antibody (AG3.0) in 100 μl of Perm/Wash Buffer during 30 min at 4° C. Cells were washed with Perm/Wash Buffer and incubated with 1:100 Alexa Fluor 488 goat anti-mouse IgG (H+L) in 100 μl of Perm/Wash Buffer during 30 min at 4° C. Cells were washed with Perm/Wash Buffer and samples were analyzed by flow cytometry. Forward versus side scatter plots were used to define the live population. In all the experiments, HIV p24-gag staining regions were set with uninfected cells treated in parallel.
For inhibition studies, cells were preincubated with the indicated inhibitor for 2 hr before stimulation (See Supplementary Methods on line for the concentration of each inhibitor or activator). […]

[2] = test system: Latently infected cells (DHIV-infected NP cells); test: HIV-1 reactivation in latently infected NP cells by signaling agonists (intracellular p24 Gag, flow cytometry); format: cell-based, human; settings: agonist 3 days at the concentration of b193; for ability of agonist to reactivate viral gene expression (in words): p24 Gag+ cells
Procedure: as §1
To complement the inhibitor studies, additional experimentation was conducted using agonists for the above signaling pathways. Latently infected cells were either left untreated or incubated with agonist. As a positive control, cells were treated with αCD3/CD28. The ability of the agonist to promote viral reactivation was then evaluated by detection of intracellular p24^Gag as shown above (FIG. 4). Phytohemagglutinin (PHA), a lectin that binds non-specifically to carbohydrate moieties on surface glycoproteins and acts as a potent polyclonal mitogen for T cells, was the first to be tested.
as §2

[3] = test system: Jurkat latently infected cells; settings: Jurkat cell line; cited from earlier work
[4] = test system: tumor cell lines harboring integrated, latent HIV-1; settings: through the activation of NFκB; cited from earlier work
p38α MAPK = settings: cited from earlier work
latently infected cells = test: IL-7+IL-2 induced viral reactivation in the presence of inhibitors; format: cell-based, human; settings: IL-7+IL-2 stimulation
Excerpt: Understanding the intracellular mediators of IL-7/IL-2 stimulation provides additional targets toward latent virus purging. Some of these mediators can be enzymes, such as kinases and phosphatases, which may be ameneable to agonistic or antagonistic drugs. It is also important to know the IL-7/IL-2 signaling because, as noted herein, this pathway is the basis for homeostatic proliferation of memory cells, where an important proportion of proliferating cells are not inducing viral reactivation.
IL-7 stimulation induces activation of p38MAPK (a noncanonical IL-7 dependent pathway). […] Therefore, p38α is also a mediator for reactivation via IL-7.

[5] = inhibitor at the concentration of b193

With `CC(C)(C)n1nc(-c2ccc(Cl)cc2)c2c(N)ncnc21` [PP2] the inhibition of reactivation (DHIV-infected NP cells) was “about 96%”, the “viral reactivation with PHA in the presence of inhibitor (reactivation efficiency)” value ([1]; PHA stimulation co-incubated with inhibitor, relative to αCD3/CD28) was 3% and the “effect of inhibitor on reactivation by PHA (in words)” value ([1]; PHA stimulation plus inhibitor) was “completely blocked reactivation by PHA”.

In the case of `CC(=O)O[C@@]12C[C@@H](C)[C@@]3(O)[C@@H](C=C(CO)C[C@]4(O)C(=O)C(C)=C[C@@H]34)[C@@H]1C2(C)C` [prostratin], the “ability of agonist to reactivate viral gene expression (in words)” value (from here on “ability of agonist”) [2] is reported as “Neither compound was able to reactivate viral gene expression; also recorded: failed to induce any degree of reactivation”.

In the case of `CCCCCCCCCCCCCC(=O)O[C@@H]1[C@@H](C)[C@@]2(O)[C@@H](C=C(CO)C[C@]3(O)C(=O)C(C)=C[C@@H]23)[C@@H]2C(C)(C)[C@]12OC(C)=O` [PMA, phorbol 12-myristate 13-acetate], the “reactivation of latent viruses (in words)” value [3] is given as “Reactivation of these latent viruses was accomplished” and the “ability of agonist” value [2] is given as “Neither compound was able to reactivate viral gene expression; also recorded: failed to induce any degree of reactivation; also recorded: failed to induce any detectable reactivation”.

In the case of TNF-α, the “reactivation of latent viruses (in words)” value [3] is given as “Reactivation of these latent viruses was accomplished”, the “induction of viral gene expression (in words)” value [4] is given as “can induce viral gene expression” and the “ability of agonist” value [2] is given as “failed to induce any degree of viral gene expression; also recorded: failed to induce any degree of reactivation; also recorded: failed to induce any detectable reactivation”.

With `CN1CCCC1CCn1cc(C2=C(c3c[nH]c4ccccc34)C(=O)NC2=O)c2ccccc21` (stereo not shown) [BIM, bisindolylmaleimide II] the “effect of inhibitor on viral reactivation (in words)” value (DHIV-infected NP cells; [5]) was “None of these three compounds had a negative effect on viral reactivation”.

With `COc1cccc(-c2cc(=O)c3ccccc3o2)c1N` [PD98059] the “effect of inhibitor on viral reactivation (in words)” value (DHIV-infected NP cells; [5]) was “Neither SP600125 nor PD98059 inhibited viral reactivation”.

In the case of `O=S(=O)(NCCNC/C=C/c1ccc(Br)cc1)c1cccc2cnccc12` [H-89], the “effect of inhibitor on viral reactivation (in words)” value (DHIV-infected NP cells; [5]) is reported as “did not have any effect on viral reactivation”.

For `C[S+]([O-])c1ccc(-c2nc(-c3ccncc3)c(-c3ccc(F)cc3)[nH]2)cc1` (stereo not shown) [SB203580], the inhibition of reactivation (DHIV-infected NP cells) is given as “about 66%”, the “effect on IL-7 induced proliferative response (in words)” value (p38α MAPK) is given as “abrogated the proliferative response” and the “effect of inhibitor on reactivation by IL-7+IL-2 (in words)” value (latently infected cells) is given as “can block reactivation”.

With Phytohemagglutinin [PHA] the “ability of agonist” value [2] was “induced reactivation almost as efficiently as αCD3/CD28 treatment” and the reactivation efficiency ([2]; relative to αCD3/CD28, formula) was 79%.

In the case of `Cc1oncc1C(=O)Nc1ccc(C(F)(F)F)cc1` [Leflunomide], the “effect of inhibitor on viral reactivation (in words)” value (DHIV-infected NP cells; [5]) is reported as “failed to block viral reactivation” and the “effect of inhibitor on viral reactivation (in words)” value (DHIV-infected NP cells; inhibitor at the concentration of b193, listed as lefluonomide) is reported as “does not block reactivation in memory cells”.

With `CCCC(CCC)C(=O)O` [VA, valproic acid] the “ability of agonist” value [2] was “failed to reactivate viral gene expression” and the “ability of agonist” value ([2]; listed as Valproic acid) was “incapable of inducing viral reactivation”.

In the case of `CC(=O)c1c(O)c(C)c(O)c(Cc2c(O)c3c(c(C(=O)/C=C/c4ccccc4)c2O)OC(C)(C)C=C3)c1O` [Rottlerin], the “effect of inhibitor on viral reactivation (in words)” value (DHIV-infected NP cells; [5]) is reported as “None of these three compounds had a negative effect on viral reactivation”.

In the case of `C[C@H](CCC(=O)O)C[C@H](C)C[C@H](C)C(=O)/C=C(\O)[C@H](C)C[C@H](C)C/C=C/[C@@H](C)[C@@H](O)[C@@H](C)[C@@H](O)C[C@@H]1CC[C@@](C)([C@H]2CC[C@@](C)([C@@H](C)O)O2)O1` [lonomycin, Ionomycin], the “ability of agonist” value [2] is reported as “had no effect on viral reactivation; also recorded: produced no detectable reactivation”.

With `Oc1ccc(-c2nc(-c3ccncc3)c(-c3ccc(F)cc3)[nH]2)cc1` [SB202190] the inhibition of reactivation (DHIV-infected NP cells) was 66%.

For `Cn1c2ccccc2c2c3c(c4c5ccccc5n(CCC#N)c4c21)CNC3=O` [Gö6976], the “effect of inhibitor on viral reactivation (in words)” value (DHIV-infected NP cells; [5]) was “None of these three compounds had a negative effect on viral reactivation”.
